{"source": "patent US11612570B2", "about": "“Decreased adhesivity receptor-targeted nanoparticles for Fn14-positive tumors” (UNIVERSITY OF MARYLAND, BALTIMORE, priority 2014, dated 2023)", "key": {"231-Luc cells": {"tested_on": "231-Luc cells", "assay": "In vitro cytotoxicity (MTS assay)", "format": "cell-based, human", "description": "For cytotoxicity assays, 231-Luc cells were cultured in 96-well plates at 5×10^3 cells/well for 24 hours. Culture media was removed and replaced with media containing various treatment groups. […] The culture media was removed after 2 hours of incubation to mimic the clearance mechanism and replaced with fresh culture media. Cell viability was then measured after 24 hours with percent viability calculated as absorbance relative to control wells (cell with culture media). A total of 3 wells were used per treatment per concentration for each experiment."}, "231-Br-Luc cells": {"tested_on": "231-Br-Luc cells", "assay": "In vitro cytotoxicity (MTS assay) in brain-seeking TNBC cells", "format": "cell-based, human", "details": "24 hours' incubation"}}, "data": [{"smiles": "CC(=O)O[C@H]1C(=O)[C@@]2(C)[C@H]([C@H](OC(=O)c3ccccc3)[C@]3(O)C[C@H](OC(=O)[C@H](O)[C@@H](NC(=O)c4ccccc4)c4ccccc4)C(C)=C1C3(C)C)[C@]1(OC(C)=O)CO[C@@H]1C[C@@H]2O", "note": "[PTX, Paclitaxel]", "values": [{"measurement": "effect on cell viability / cytotoxicity", "setting": "231-Luc cells; 2 hours exposure, then fresh media for 24 hours", "value": "only a small effect on cell viability"}, {"measurement": "cytotoxicity", "setting": "231-Luc cells; 24 hours in culture media", "value": "more potent than Abraxane™"}, {"measurement": "cell sensitivity (viability)", "setting": "231-Br-Luc cells", "value": "sensitive to PTX treatment in vitro"}]}]}
